“And” between values parts separate entries of the source, which are not always exact repeats. Identical values can stand only once.
Test system: 967376-340-R-J2-PDC multicell spheroid viability
Test: Anticancer human tumor 967376-340-R-J2-PDC patient-derived colon adenocarcinoma cell line growth inhibition [PI3K]
Details: for viability, T/C: stronger effect = lower value
In short: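 Complex 3D spheroids (cancer cells + endothelial HUVEC + mesenchymal stem cells); drug pairs of targeted agent x inavolisib/alpelisib/duvelisib/copanlisib; half-log series from ~Cmax, max 10 microM if Cmax unknown; endpoint viability.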

[1] = curve of first compound, second compound 0.0316 µM
[2] = curve of first compound, second compound 0.1 µM
[3] = curve of first compound, second compound 0.316 µM
[4] = curve of first compound, second compound 1 µM
[5] = second compound 0.0316 µM, first compound 0.0316 µM
[6] = second compound 0.0316 µM, first compound 0.1 µM
[7] = second compound 0.0316 µM, first compound 0.316 µM
[8] = second compound 0.0316 µM, first compound 1 µM
[9] = second compound 0.0316 µM, first compound 3.16 µM
[10] = second compound 0.0316 µM, first compound 10 µM
[11] = second compound 0.1 µM, first compound 0.0316 µM
[12] = second compound 0.1 µM, first compound 0.1 µM
[13] = second compound 0.1 µM, first compound 0.316 µM
[14] = second compound 0.1 µM, first compound 1 µM
[15] = second compound 0.1 µM, first compound 3.16 µM
[16] = second compound 0.1 µM, first compound 10 µM
[17] = second compound 0.316 µM, first compound 0.0316 µM
[18] = second compound 0.316 µM, first compound 0.1 µM
[19] = second compound 0.316 µM, first compound 0.316 µM
[20] = second compound 0.316 µM, first compound 1 µM
[21] = second compound 0.316 µM, first compound 3.16 µM
[22] = second compound 0.316 µM, first compound 10 µM
[23] = second compound 1 µM, first compound 0.0316 µM
[24] = second compound 1 µM, first compound 0.1 µM
[25] = second compound 1 µM, first compound 0.316 µM
[26] = second compound 1 µM, first compound 1 µM
[27] = second compound 1 µM, first compound 3.16 µM
[28] = second compound 1 µM, first compound 10 µM
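Note: spheroids exposed to agents for 7 days before read-out.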
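Throughout, for viability, T/C: luminescence used as surrogate of cell viability.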

With `CC1(C)CCC(CN2CCN(c3ccc(C(=O)NS(=O)(=O)c4ccc(NCC5CCOCC5)c([N+](=O)[O-])c4)c(Oc4cnc5[nH]ccc5c4)c3)CC2)=C(c2ccc(Cl)cc2)C1` + COc1c(OCCCN2CCOCC2)ccc2c3n(c(=NC(=O)c4cnc(N)nc4)nc12)CCN3 the IC50 (curve of first compound, second compound 0.00316 µM) was > 10 µM, the IC50 (curve of first compound, second compound 0.01 µM) was > 10 µM and the IC50 [1] was 7.86 µM. The IC50 [2] was 1.2 µM, the IC50 [3] was < 0.0316 µM and the IC50 [4] was < 0.0316 µM. For the same compound, the viability, T/C (second compound 0.00316 µM, first compound 0.0316 µM) was 92.6%, the viability, T/C (second compound 0.00316 µM, first compound 0.1 µM) was 82% and the viability, T/C (second compound 0.00316 µM, first compound 0.316 µM) was 94.8%. For the same compound, the viability, T/C (second compound 0.00316 µM, first compound 1 µM) was 108%, the viability, T/C (second compound 0.00316 µM, first compound 3.16 µM) was 81.6% and the viability, T/C (second compound 0.00316 µM, first compound 10 µM) was 64.3%. The viability, T/C (second compound 0.01 µM, first compound 0.0316 µM) was 83.2%, the viability, T/C (second compound 0.01 µM, first compound 0.1 µM) was 87.6% and the viability, T/C (second compound 0.01 µM, first compound 0.316 µM) was 82.9%. It also gave a viability, T/C (second compound 0.01 µM, first compound 1 µM) of 75.8%, a viability, T/C (second compound 0.01 µM, first compound 3.16 µM) of 76.4% and a viability, T/C (second compound 0.01 µM, first compound 10 µM) of 55.8%. The viability, T/C [5] was 76.9%, the viability, T/C [6] was 73.6% and the viability, T/C [7] was 63.6%. The viability, T/C [8] was 67.2%, the viability, T/C [9] was 62.6% and the viability, T/C [10] was 46.1%. It also gave a viability, T/C [11] of 56.6%, a viability, T/C [12] of 67% and a viability, T/C [13] of 44.2%. For the same compound, the viability, T/C [14] was 48.5%, the viability, T/C [15] was 54.6% and the viability, T/C [16] was 39.5%. It also gave a viability, T/C [17] of 35.4%, a viability, T/C [18] of 44.6% and a viability, T/C [19] of 31.2%. The viability, T/C [20] was 40%, the viability, T/C [21] was 37.4% and the viability, T/C [22] was 21.4%. The viability, T/C [23] was 48.5%, the viability, T/C [24] was 28.9% and the viability, T/C [25] was 35.2%. The viability, T/C [26] was 24.8%, the viability, T/C [27] was 30.9% and the viability, T/C [28] was 27.8%.

`C=CC(=O)N1CCN(c2nc(=O)n(-c3c(C)ccnc3C(C)C)c3nc(-c4c(O)cccc4F)c(F)cc23)C(C)C1` (centres undefined) + Cc1nc(NC(=O)N2CCCC2C(N)=O)sc1-c1ccnc(C(C)(C)C(F)(F)F)c1 was tested, and the IC50 [1] was > 10 µM, the IC50 [2] was > 10 µM and the IC50 [3] was > 10 µM. The IC50 [4] was > 10 µM, the IC50 (curve of first compound, second compound 3.16 µM) was > 10 µM and the IC50 (curve of first compound, second compound 10 µM) was < 0.0316 µM. It also gave a viability, T/C [5] of 85.5%, a viability, T/C [6] of 85.2% and a viability, T/C [7] of 86.6%. It also gave a viability, T/C [8] of 84.6%, a viability, T/C [9] of 91.7% and a viability, T/C [10] of 102%. For the same compound, the viability, T/C [11] was 91.9%, the viability, T/C [12] was 85.8% and the viability, T/C [13] was 75.6%. The viability, T/C [14] was 84.6%, the viability, T/C [15] was 100% and the viability, T/C [16] was 74%. It also gave a viability, T/C [17] of 73.3%, a viability, T/C [18] of 74.5% and a viability, T/C [19] of 62.5%. It also gave a viability, T/C [20] of 94%, a viability, T/C [21] of 91.3% and a viability, T/C [22] of 69.8%. The viability, T/C [23] was 65.5%, the viability, T/C [24] was 65.7% and the viability, T/C [25] was 57.3%. The viability, T/C [26] was 66.6%, the viability, T/C [27] was 66.1% and the viability, T/C [28] was 76.5%. The viability, T/C (second compound 3.16 µM, first compound 0.0316 µM) was 61%, the viability, T/C (second compound 3.16 µM, first compound 0.1 µM) was 52.9% and the viability, T/C (second compound 3.16 µM, first compound 0.316 µM) was 64.4%. The viability, T/C (second compound 3.16 µM, first compound 1 µM) was 56.8%, the viability, T/C (second compound 3.16 µM, first compound 3.16 µM) was 77.7% and the viability, T/C (second compound 3.16 µM, first compound 10 µM) was 53.3%. The viability, T/C (second compound 10 µM, first compound 0.0316 µM) was 46.9%, the viability, T/C (second compound 10 µM, first compound 0.1 µM) was 44.7% and the viability, T/C (second compound 10 µM, first compound 0.316 µM) was 44.9%. For the same compound, the viability, T/C (second compound 10 µM, first compound 1 µM) was 56.3%, the viability, T/C (second compound 10 µM, first compound 3.16 µM) was 48.7% and the viability, T/C (second compound 10 µM, first compound 10 µM) was 42%.

With `CNC(=O)c1ccc(N2C(=S)N(c3ccc(C#N)c(C(F)(F)F)c3)C(=O)C2(C)C)cc1F` the viability, T/C (compound 0.1 µM) was 94.8% (2×) and 84.5% and 88.3%, the viability, T/C (compound 0.316 µM) was 96.1% [middle of 4 runs] and the viability, T/C (compound 1 µM) was 87.2% [middle of 4 runs]. The viability, T/C (compound 10 µM) was 102% [middle of 4 runs] and the IC50 (curve of compound) was > 10 µM.

— PubChem BioAssay AID1963962 (Molecular Pharmacology Branch, DTP, NCI, 2024)
